Measured values: patent US11780841B2, “3,6-methano-1H-pyrrolo[3,2-b]pyridine and 3,6-methano-1H-pyrrolo[3,2-c]pyridine compounds and medicaments using same” (priority 2018, dated 2023)
Like-named read-outs stand apart in the source and are kept apart here.

Test system: recombinant rabies virus 1088 strain expressing Gaussia Luciferase (GLuc) (1088/GLuc)
Format: cell-based

`CC(C)CC[C@@H]1[C@H]2CN[C@@]3(C(=O)NCc4ccccc4)[C@@H](C2)CN(CC(C)C)[C@@H]13` [IB-875] showed an IC50 (read-out: Anti-rabies activity) of 10 to 30 µM.
`O=C(NCCc1ccccc1)[C@@]12C[C@@H]3CN(CC4CCCCC4)[C@@H]([C@@H]3CN1)[C@H]2Cc1ccccc1` [IF-710] was tested, and the IC50 (read-out: Anti-rabies activity) was < 5 µM.
With `CCOc1ccc(CN2C[C@@H]3C[C@@H]4CN[C@]3(C(=O)NCc3ccccc3)[C@@H]2[C@@H]4CC(C)C)cc1` [IB-878] the IC50 (read-out: Anti-rabies activity) was 10 to 30 µM.
`CC(C)CCN1C[C@@H]2C[C@@H]3CN[C@]2(C(=O)NCc2ccc(F)cc2)[C@@H]1[C@@H]3CCC(=O)O` [IB-386] was tested, and the IC50 (read-out: Anti-rabies activity) was 10 to 30 µM.
For `CC(C)CCNC(=O)[C@@]12C[C@@H]3CN(Cc4ccc(O)cc4)[C@@H]([C@@H]3CN1)[C@H]2Cc1cccc2ccccc12` [IF-684], the IC50 (read-out: Anti-rabies activity) was 10 to 30 µM.
`O=C(O)CC[C@@H]1[C@H]2CN[C@@]3(C(=O)NCc4cccc5ccccc45)[C@@H](C2)CN(Cc2ccc(F)cc2)[C@@H]13` [IB-390] gave an IC50 (read-out: Anti-rabies activity) of 10 to 30 µM.
`CCCCCCNC(=O)[C@]12NC[C@H]3C[C@H]1CN(CC(N)=O)[C@H]2[C@@H]3CCC(C)C` [IB-108] was tested, and the IC50 (read-out: Anti-rabies activity) was 10 to 30 µM.
Compound `CC(C)C[C@@H]1[C@@H]2[C@@H]3CN[C@@]1(C(=O)NCCc1ccccc1)C[C@@H]3CN2CC1CCCCC1` [IF-711] has an IC50 (read-out: Anti-rabies activity) of 10 to 30 µM.
With `CC(C)CC[C@@H]1[C@H]2CN[C@@]3(C(=O)NCCC(N)=O)[C@@H](C2)CN(Cc2cccc4ccccc24)[C@@H]13` [IB-349] the IC50 (read-out: Anti-rabies activity) was < 5 µM.
In the case of `O=C(NCc1cccc2ccccc12)[C@@]12C[C@@H]3CN(Cc4ccc(O)cc4)[C@@H]([C@@H]3CN1)[C@H]2Cc1cccc2ccccc12` [IF-779], the IC50 (read-out: Anti-rabies activity) is reported as 10 to 30 µM.
For `CCN1C[C@H]2C[C@H]3CN(Cc4ccc(C)cc4)[C@@H]([C@@H]2CC(C)C)[C@]31C(=O)NCc1ccccc1` (relative stereo) [IB-880], the IC50 (read-out: Anti-rabies activity) was < 5 µM.
In the case of `Cc1ccc(CN2C[C@@H]3C[C@@H]4CN[C@]3(C(=O)NCc3ccccc3)[C@@H]2[C@@H]4CC(C)C)cc1` [IB-867], the IC50 (read-out: Anti-rabies activity) is reported as 5 to 10 µM.
For `CC(C)CC[C@@H]1[C@@H]2[C@@H]3CN[C@@]1(C(=O)NCC(C)C)C[C@@H]3CN2CC(C)C` [IF-412], the IC50 (read-out: Anti-rabies activity) was < 5 µM.
In the case of `CCCCCCNC(=O)[C@@]12C[C@@H]3CN(CC4CCCCC4)[C@@H]([C@@H]3CN1)[C@H]2Cc1ccc(O)cc1` (relative stereo) [IF-514], the IC50 (read-out: Anti-rabies activity) is reported as < 5 µM.
For `CC(C)CCNC(=O)[C@]12NC[C@H]3C[C@H]1CN(CC(C)C)[C@H]2[C@@H]3CCc1ccccc1` [IB-688], the IC50 (read-out: Anti-rabies activity) was < 5 µM.
`CC(C)CC[C@@H]1[C@@H]2[C@@H]3CN[C@@]1(C(=O)NCc1ccc(O)cc1)C[C@@H]3CN2CC1CCCCC1` [IF-474] was tested, and the IC50 (read-out: Anti-rabies activity) was < 5 µM.
`O=C(NCCO)[C@]12NC[C@H]3C[C@H]1CN(CCc1ccccc1)[C@H]2[C@@H]3Cc1cccc2ccccc12` [IB-593] was tested, and the IC50 (read-out: Anti-rabies activity) was 10 to 30 µM.
For `CC(C)CCN1C[C@H]2C[C@]3(C(=O)NCCO)NC[C@H]2[C@H]1[C@H]3Cc1cccc2ccccc12` [IF-611], the IC50 (read-out: Anti-rabies activity) was 10 to 30 µM.
`O=C(NCc1ccc(O)cc1)[C@@]12C[C@@H]3CN(CC4CCCCC4)[C@@H]([C@@H]3CN1)[C@H]2CCc1ccccc1` [IF-475] was tested, and the IC50 (read-out: Anti-rabies activity) was 10 to 30 µM.
`CC(C)CNC(=O)[C@]12NC[C@H]3C[C@H]1CN(CCc1ccccc1)[C@H]2[C@@H]3Cc1ccccc1` [IB-759] was tested, and the IC50 (read-out: Anti-rabies activity) was < 5 µM.
In the case of `CC(C)CCNC(=O)[C@@]12C[C@@H]3CN(CCCNC(=N)N)[C@@H]([C@@H]3CN1)[C@H]2Cc1cccc2ccccc12` [IF-356], the IC50 (read-out: Anti-rabies activity) is reported as 10 to 30 µM.
In the case of `CC(C)CCN1C[C@H]2C[C@]3(C(=O)NCc4ccc(O)cc4)NC[C@H]2[C@H]1[C@H]3Cc1ccccc1` [IF-466], the IC50 (read-out: Anti-rabies activity) is reported as 10 to 30 µM.
`CC(C)C[C@@H]1[C@@H]2[C@@H]3CN[C@@]1(C(=O)NCc1ccccc1)C[C@@H]3CN2Cc1ccc(Cl)cc1` [IF-839] showed an IC50 (read-out: Anti-rabies activity) of 5 to 10 µM.
With `CC(C)CNC(=O)[C@@]12C[C@@H]3CN(CCc4ccccc4)[C@@H]([C@@H]3CN1)[C@H]2Cc1ccccc1` [IF-641] the IC50 (read-out: Anti-rabies activity) was < 5 µM.
Compound `N=C(N)NCCC[C@@H]1[C@H]2CN[C@@]3(C(=O)NCc4ccc(F)cc4)[C@@H](C2)CN(Cc2ccc(O)cc2)[C@@H]13` [IB-207] has an IC50 (read-out: Anti-rabies activity) of 10 to 30 µM.
Work on `CC(C)CC[C@@H]1[C@@H]2[C@@H]3CN[C@@]1(C(=O)NCc1cccc4ccccc14)C[C@@H]3CN2CC(N)=O` (relative stereo) [IF-84] yielded an IC50 (read-out: Anti-rabies activity) of 10 to 30 µM.
Compound `NC(=O)CCNC(=O)C12NCC3CC1CN(Cc1cccc4ccccc14)C2C3Cc1ccc(O)cc1` (centres unmarked) [IB-521] has an IC50 (read-out: Anti-rabies activity) of 10 to 30 µM.
Work on `CC(C)CN1C[C@H]2C[C@]3(C(=O)NCc4ccc(O)cc4)NC[C@H]2[C@H]1[C@H]3Cc1cccc2ccccc12` [IF-500] yielded an IC50 (read-out: Anti-rabies activity) of 10 to 30 µM.
`CC(C)C[C@@H]1[C@H]2CN[C@@]3(C(=O)NCCC(N)=O)[C@@H](C2)CN(CCc2ccccc2)[C@@H]13` [IB-708] was tested, and the IC50 (read-out: Anti-rabies activity) was < 5 µM.
Work on `CC(C)C[C@@H]1[C@@H]2[C@@H]3CN[C@@]1(C(=O)NCc1ccc(Cl)c(Cl)c1)C[C@@H]3CN2Cc1ccccc1` (relative stereo) [IF-20] yielded an IC50 (read-out: Anti-rabies activity) of 10 to 30 µM and an IC50 (read-out: IC50) of 11.6 µM.
For `CC(C)CNC(=O)[C@]12NC[C@H]3C[C@H]1CN(CCc1ccccc1)[C@H]2[C@@H]3CC(C)C` [IB-760], the IC50 (read-out: Anti-rabies activity) was < 5 µM.
`CC(C)CCN1C[C@H]2C[C@]3(C(=O)NCc4ccc(O)cc4)NC[C@H]2[C@H]1[C@H]3Cc1cccc2ccccc12` [IF-465] showed an IC50 (read-out: Anti-rabies activity) of 10 to 30 µM.
In the case of `NC(=O)CCNC(=O)[C@@]12C[C@@H]3CN(Cc4ccc(F)cc4)[C@@H]([C@@H]3CN1)[C@H]2Cc1cccc2ccccc12` [IF-539], the IC50 (read-out: Anti-rabies activity) is reported as < 5 µM.
In the case of `CC(C)C[C@@H]1[C@H]2CN[C@@]3(C(=O)NCc4ccccc4)[C@@H](C2)CN(Cc2ccc(C(C)(C)C)cc2)[C@@H]13` [IB-874], the IC50 (read-out: Anti-rabies activity) is reported as 5 to 10 µM.
In the case of `CC(C)CC[C@@H]1[C@@H]2[C@@H]3CN[C@@]1(C(=O)NCc1ccccc1)C[C@@H]3CN2Cc1ccc(F)cc1` [IF-743], the IC50 (read-out: Anti-rabies activity) is reported as 10 to 30 µM.
Compound `O=C(NCCc1ccccc1)[C@@]12C[C@@H]3CN(Cc4ccc(F)cc4)[C@@H]([C@@H]3CN1)[C@H]2Cc1ccccc1` (relative stereo) [IF-586] has an IC50 (read-out: Anti-rabies activity) of 10 to 30 µM.
`NC(=O)C[C@@H]1[C@@H]2[C@@H]3CN[C@@]1(C(=O)NCc1ccc(O)cc1)C[C@@H]3CN2CC1CCCCC1` [IF-247] gave an IC50 (read-out: Anti-rabies activity) of 10 to 30 µM.
`CC(C)CNC(=O)[C@@]12C[C@@H]3CN(CCC(=O)O)[C@@H]([C@@H]3CN1)[C@H]2CCc1ccccc1` [IF-454] gave an IC50 (read-out: Anti-rabies activity) of 10 to 30 µM.
`NC(=O)CN1C[C@@H]2C[C@@H]3CN[C@]2(C(=O)NCCc2ccccc2)[C@@H]1[C@@H]3Cc1ccccc1` [IB-87] was tested, and the IC50 (read-out: Anti-rabies activity) was < 5 µM.
With `Cc1cccc(CNC(=O)[C@@]23C[C@@H]4CN(CC(C)C)[C@@H]([C@@H]4CN2)[C@H]3Cc2ccccc2)c1` (relative stereo) [IF-15] the IC50 (read-out: Anti-rabies activity) was 10 to 30 µM and the IC50 (read-out: IC50) was 17.1 µM.
`CC(C)CCN1CC2CC3C=NC2(C(=O)NCc2ccc(F)cc2)C1C3CC(C)C` (centres unmarked) [IIB-104] gave an IC50 (read-out: Anti-rabies activity) of 5 to 10 µM.
`NC(=O)CCNC(=O)[C@]12NC[C@H]3C[C@H]1CN(CCc1ccccc1)[C@H]2[C@@H]3Cc1ccccc1` [IB-707] was tested, and the IC50 (read-out: Anti-rabies activity) was < 5 µM.
In the case of `CC(C)CNC(=O)[C@]12NC[C@H]3C[C@H]1CN(Cc1ccc(O)cc1)[C@H]2[C@@H]3CCCNC(=N)N` [IB-203], the IC50 (read-out: Anti-rabies activity) is reported as 10 to 30 µM.
For `CC(C)CCN1CC2CC3CNC2(C(=O)NCc2ccc(O)cc2)C1C3Cc1ccccc1` (centres unmarked) [IB-577], the IC50 (read-out: Anti-rabies activity) was 10 to 30 µM.
Compound `CC(C)CN1CC2CC3CNC2(C(=O)NCCc2ccccc2)C1C3Cc1ccc(O)cc1` (centres unmarked) [IB-536] has an IC50 (read-out: Anti-rabies activity) of 10 to 30 µM.
For `N=C(N)NCCCNC(=O)[C@]12NC[C@H]3C[C@H]1CN(Cc1cccc4ccccc14)[C@H]2[C@@H]3CCc1ccccc1` [IB-354], the IC50 (read-out: Anti-rabies activity) was < 5 µM.
Compound `CCOc1ccc(CN2CC3CC4C=NC3(C(=O)NCc3ccccc3)C2C4CC(C)C)cc1` (centres unmarked) [IIB-97] has an IC50 (read-out: Anti-rabies activity) of 10 to 30 µM.
With `CC(C)CC[C@@H]1[C@H]2CN[C@@]3(C(=O)NCCCNC(=N)N)[C@@H](C2)CN(CCc2ccccc2)[C@@H]13` [IB-346] the IC50 (read-out: Anti-rabies activity) was 10 to 30 µM.
